Results as given in paper PMC11643516, “Design, Synthesis, Structural Insights, Tyrosinase Inhibition, and Sun Protection Factor of New Thiosemicarbazone Derivatives” (Molecules, 2024).
Structures can show the parent of a compound that is named as a salt. Where two headings read alike, the source gives them in different places.

Tests used:
Tyrosinase = conditions: L-DOPA as substrate, read-out: Tyrosinase Inhibitory Activity IC50, cited from earlier work
B16 melanoma cells = tested on: B16 melanoma cells; parameters: method as in PMID 20863702; conditions: read-out: Anti-Melanogenesis Activity IC50; cited from earlier work
mushroom tyrosinase = assay: Mushroom tyrosinase inhibition assay (L-DOPA, dopachrome formation at 492 nm); assay type: biochemical; conditions: L-DOPA substrate, pH 6.8, 37 °C; mean ± SD of triplicate experiments; read-out: IC50 against mushroom tyrosinase activity
Experimental: Mushroom Tyr inhibition was assessed as described previously with minor modifications. […] L-DOPA was then added and the dopachrome formation was monitored at 492 nm. The measurements were taken using a FLUOstar OPTIMA (BMG Labtech, Offenburg, Germany). The IC50 value was determined by analysing dose–response curves.

[1] = ABTS radical scavenging assay; conditions: 734 nm after 1 min of incubation; mean ± SD of triplicate
Experimental: Samples of each compound (10 µL) were added to 990 µL of ABTS, and the reduction in the blue-green radical ABTS^+• by hydrogen-donating antioxidants was evaluated by measuring the absorbance at 734 nm after 1 min of incubation. All the measurements were carried out at least three times.

[2] = DPPH radical scavenging assay; conditions: 0.1 mM DPPH, 30 min in the dark, 517 nm; mean ± SD of triplicate
Experimental: Radical scavenging activity of the thiosemicarbazone derivatives was estimated according to the previously reported method with slight modification using the stable DPPH radical. A solution of 0.1 mM DPPH radical was added to various concentrations of the compounds. The absorbance of the DPPH radical without an antioxidant, i.e., blank, was also measured. The mixture was shaken vigorously and kept at room temperature for 30 min in the dark. The absorbance of the reaction mixture was measured at 517 nm spectrophotometrically. All the determinations were performed in triplicate.

melting point | IC50 (mushroom tyrosinase) | Structure (SMILES) | ABTS (% I ± SD), percentage of inhibition of free radicals [1] | DPPH (% I ± SD), percentage of inhibition of free radicals [2] | also measured
159 to 160 °C |  | NC(=S)N/N=C/c1ccc(OS(=O)(=O)c2ccccc2)cc1 (as salt: benzenesulfonate) [TCBS1, (E)-4-((2-carbamothioylhydrazineylidene)methyl)phenyl benzenesulfonate] |  |  | 
226 to 228 °C |  | NC(=S)N/N=C/c1ccc(OS(=O)(=O)c2ccc([N+](=O)[O-])cc2)cc1 (as salt: benzenesulfonate) [TCBS2, (E)-4-((2-carbamothioylhydrazineylidene)methyl)phenyl 4-nitrolbenzenesulfonate] |  |  | 
194 to 196 °C |  | NC(=S)N/N=C/c1ccc(OS(=O)(=O)c2ccc(Cl)cc2)cc1 (as salt: benzenesulfonate) [TCBS5, (E)-4-((2-carbamothioylhydrazineylidene)methyl)phenyl 4-chlorobenzenesulfonate] |  |  | 
 |  | NC(=S)N/N=C/c1ccc(Cl)cc1 [Compound 1] |  |  | IC50 (Tyrosinase; ref 17): 840 nM; IC50 (Tyrosinase; ref 18): 1900 nM
 |  | COc1ccc(/C=N/NC(N)=S)cc1 [Compound 2] |  |  | IC50 (Tyrosinase; ref 17): 440 nM; IC50 (Tyrosinase; ref 20): 1480 nM
 |  | NC(=S)N/N=C/c1ccc([N+](=O)[O-])cc1 [Compound 3] |  |  | IC50 (Tyrosinase; ref 19): 1900 nM
 |  | NC(=S)N/N=C/c1ccccc1 [Compound 4] |  |  | IC50 (B16 melanoma cells): > 10000 nM
 |  | NC(=S)N/N=C/c1cccc2ccccc12 [Compound 5] |  |  | IC50 (B16 melanoma cells): 1100 nM
 |  | NC(=S)N/N=C/c1ccncc1 [Compound 6] |  |  | IC50 (B16 melanoma cells): > 30000 nM
 | 440 ± 30 nM | NC(=S)N/N=C/c1ccc(OS(=O)(=O)c2ccccc2)cc1 [TCBS1, (E)-4-((2-carbamothioylhydrazineylidene)methyl)phenyl benzenesulfonate] | 39 ± 1% | 26 ± 2% | 
 | 660 ± 50 nM | NC(=S)N/N=C/c1ccc(OS(=O)(=O)c2ccc([N+](=O)[O-])cc2)cc1 [TCBS2, (E)-4-((2-carbamothioylhydrazineylidene)methyl)phenyl 4-nitrolbenzenesulfonate] | 25 ± 4% | 16 ± 2% | 
154 to 156 °C | 440 ± 10 nM | COc1ccc(S(=O)(=O)Oc2ccc(/C=N/NC(N)=S)cc2)cc1 [TCBS3, (E)-4-((2-carbamothioylhydrazineylidene)methyl)phenyl 4-methoxylbenzenesulfonate] | 35 ± 1% | 33 ± 4% | 
195 to 197 °C | 440 ± 10 nM | Cc1ccc(S(=O)(=O)Oc2ccc(/C=N/NC(N)=S)cc2)cc1 [TCBS4, (E)-4-((2-carbamothioylhydrazineylidene)methyl)phenyl 4-methylbenzenesulfonate] | 30 ± 2% | 20 ± 1% | 
 | 710 ± 20 nM | NC(=S)N/N=C/c1ccc(OS(=O)(=O)c2ccc(Cl)cc2)cc1 [TCBS5, (E)-4-((2-carbamothioylhydrazineylidene)methyl)phenyl 4-chlorobenzenesulfonate] | 22 ± 2% | 32 ± 5% | 
224 to 226 °C | 1600 ± 20 nM | CS(=O)(=O)Oc1ccc(/C=N/NC(N)=S)cc1 [TCMS1, (E)-4-((2-carbamothioylhydrazineylidene)methyl)phenyl methanesulfonate] | 42 ± 4% | 20 ± 2% | 
